Assay results published in PMC5725832, “Evaluation of the effect of D-amino acid incorporation into amyloid-reactive peptides” (Journal of Translational Medicine, 2017).

Legend:
[1] = Circular dichroism, heparin-induced coil-to-helix transition (ellipticity at 222 nm); assay type: physicochemical; conditions: CD, peptide 0.05 mg/mL, 2.9 mL sample, 1 cm path; titration of low molecular weight heparin (enoxaparin) up to 1.5 mg; data collected in triplicate
Description: CD spectra were obtained for all peptides (0.05 mg/mL in PBS) using a DSM 1000 CD instrument (Olis Inc., Bogart, Georgia) with a peptide sample volume of 2.9 mL and a 1 cm cuvette path length. Data were collected in triplicate over the 190–250 nm wavelength range with 1 nm increments. Increasing amounts of low molecular weight heparin (Enoxaparin sodium, Sanofi, Bridgewater, NJ) up to 1.5 mg was added to each peptide to induce secondary structure transitions. All data were corrected for background by subtraction of a PBS or PBS with enoxaparin CD spectrum. Mean residue ellipticity [Θ] was calculated according to: Θ *(MW/no. AA)/(10 *conc. *l) where: Θ is ellipticity (millidegrees); MW is the molecular weight of the peptide (3356.8 Da); no. AA, is the number of amino acid residues, (31); conc. is the peptide concentration (mg/mL), and l, is the cuvette path length (cm).

[2] = mouse, in vivo, iv
Description: Peptides (20–40 μg) were radiolabeled with iodine-125 (^125I; Perkin Elmer, Waltham, MA) as previously described. Briefly, ~ 2 mCi of ^125I in buffered sodium phosphate pH 7.6 was mixed with peptide and 20 μg chloramine T in a volume of 10 µL water for 1 min. The reaction was quenched using 20 μg sodium metabisulphite in 10 µL water. Radiolabeled product was separated from free isotope by gel filtration chromatography using a Sephadex G-25 size-exclusion matrix (PD10; GE Healthcare) equilibrated with 0.1% gelatin/PBS. Fractions were collected manually and radioactivity in each measured by gamma counting after which the peak fractions were pooled. Radiochemical purity was assessed qualitatively by estimating the free radioiodide from phosphor images (Cyclone Storage Phosphor System, PerkinElmer, Shelton, CT) of SDS-PAGE gels. SPECT/CT imaging was performed as described previously. […] Low energy (^125I; 25–45 keV) gamma photons were detected at each of 60, 16-s projections with 90 mm of bed travel in 1.5 revolutions. […] A small piece of each tissue was weighed in tared vials and radioactivity quantified using an automated gamma counter (1480 Wizard 3 Gamma Counter, Perkin Elmer). The tissue radioactivity data were expressed as % injected dose per gram of tissue (%ID/g). […]

radioactivity in the kidneys [2]: ~ 39 %ID/g
Substance: aqaYS KAQKAQAKQAKQAQKAQKAQAKQAKQ [^aqap5, 31-residue p5 variant with three D-amino acids at the N-terminus; tested 125I-labeled in vivo]
half maximal value of the heparin-mediated transition in mean residue ellipticity at 222 nm [1]: 0.33 mg
